# Test system: western corn rootworm
# Experiment: Test Example 5: corn seedling immersion test, western corn rootworm larvae
# Format: in vivo
# Details: Zea mays, 120 h, corn seedlings immersed 30 seconds, ten 2-instar larvae, five days later, read-out: mortality rate of insects
# Protocol: 1 mg of each test compound is dissolved in 50 μL of a mixed solution of polyoxyethylene sorbitan monococoate:acetone=5.95 (volume ratio). To the resultant is added water containing 0.03% by volume of a spreading agent, to prepare a diluted solution containing a predetermined concentration of the test compound.
# Seeds of corn (Zea mays) are seeded onto a tray lined with wet Kimwipes, After the corn has grown for 5 days, die entire seedlings are immersed into the diluted solution for 30 seconds. Thereafter, two seedlings are put in a petri dish (diameter of 90 mm), and ten 2-instar larvae of western corn rootworm are released thereinto. Five days later, the number of dead insects is counted, and a mortality rate of insects is calculated by the following expression. Mortality rate of insects (%)=(number of dead insects/10)×100.
structure (smiles),measurement,value
CCSc1c(-c2ccc(OCC(F)(F)C(F)(F)F)cn2)nc2ccc(C(F)(F)F)cn12 [Compound 1],mortality at 500 ppm,≥ 80%
